From patent publication US12612416B2, “Modulators of cystic fibrosis transmembrane conductance regulator” (VERTEX PHARMACEUTICALS INCORPORATED, priority 2020, dated 2026)
Where two headings read alike, the source gives them in different places.

How the values were obtained:
[1] = target: T1, F508del in NIH 3T3 cells (Homo sapiens, UniProt P13569, DEL508-508); test: 3T3 assay: membrane potential optical assay for F508del correction; type: cell-based, mouse; conditions: F508del NIH 3T3 cells; for EC50: compound incubation 18-24 hours at 37° C., forskolin activation; for 3T3 Max Activity: efficacy compared to lumacaftor in combination with acutely added 300 nM Ivacaftor
T1 construct: expressed in transfected cells
T1 sequence (P13569 with tags, fused parts or gaps DEL508-508): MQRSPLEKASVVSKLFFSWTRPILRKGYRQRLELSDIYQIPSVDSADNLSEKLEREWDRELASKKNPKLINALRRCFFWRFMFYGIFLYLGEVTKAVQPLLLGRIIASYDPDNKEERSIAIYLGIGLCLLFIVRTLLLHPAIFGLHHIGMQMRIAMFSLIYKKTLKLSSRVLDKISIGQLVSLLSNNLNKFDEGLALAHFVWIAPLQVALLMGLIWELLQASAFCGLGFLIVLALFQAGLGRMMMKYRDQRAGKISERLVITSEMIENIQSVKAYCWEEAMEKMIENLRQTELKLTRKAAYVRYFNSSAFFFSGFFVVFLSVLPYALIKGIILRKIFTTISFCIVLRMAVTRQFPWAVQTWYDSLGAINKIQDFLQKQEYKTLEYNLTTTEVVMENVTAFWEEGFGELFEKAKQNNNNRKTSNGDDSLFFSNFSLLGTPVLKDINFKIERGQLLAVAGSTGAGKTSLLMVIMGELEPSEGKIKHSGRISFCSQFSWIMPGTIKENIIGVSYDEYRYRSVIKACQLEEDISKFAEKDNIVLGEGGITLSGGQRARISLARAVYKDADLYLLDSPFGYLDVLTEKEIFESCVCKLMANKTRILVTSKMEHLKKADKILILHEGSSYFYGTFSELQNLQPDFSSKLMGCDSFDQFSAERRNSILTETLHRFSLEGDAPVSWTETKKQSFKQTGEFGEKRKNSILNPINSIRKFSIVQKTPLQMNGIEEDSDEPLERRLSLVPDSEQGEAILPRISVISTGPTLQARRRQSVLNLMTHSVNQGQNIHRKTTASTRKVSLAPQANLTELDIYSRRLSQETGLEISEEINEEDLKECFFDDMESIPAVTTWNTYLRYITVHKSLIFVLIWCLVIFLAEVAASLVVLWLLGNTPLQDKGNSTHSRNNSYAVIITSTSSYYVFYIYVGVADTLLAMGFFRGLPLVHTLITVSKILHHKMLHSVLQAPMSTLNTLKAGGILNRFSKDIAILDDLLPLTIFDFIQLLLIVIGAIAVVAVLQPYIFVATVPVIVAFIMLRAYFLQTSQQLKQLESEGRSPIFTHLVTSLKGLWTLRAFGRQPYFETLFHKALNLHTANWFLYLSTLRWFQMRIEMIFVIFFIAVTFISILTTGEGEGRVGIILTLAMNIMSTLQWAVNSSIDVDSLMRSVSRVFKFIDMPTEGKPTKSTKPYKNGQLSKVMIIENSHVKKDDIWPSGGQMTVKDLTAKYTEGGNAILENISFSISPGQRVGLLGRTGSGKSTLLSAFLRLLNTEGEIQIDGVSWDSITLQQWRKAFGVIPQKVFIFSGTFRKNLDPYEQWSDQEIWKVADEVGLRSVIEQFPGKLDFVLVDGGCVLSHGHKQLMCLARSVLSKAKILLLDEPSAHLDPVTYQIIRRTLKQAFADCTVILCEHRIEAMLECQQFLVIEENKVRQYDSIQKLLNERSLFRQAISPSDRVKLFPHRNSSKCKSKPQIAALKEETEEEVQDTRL
Text: The assay utilizes fluorescent voltage sensing dyes to measure changes in membrane potential using a fluorescent plate reader (e.g., FLIPR III, Molecular Devices, Inc.) as a readout for increase in functional F508del in NIH 3T3 cells. The driving force for the response is the creation of a chloride ion gradient in conjunction with channel activation by a single liquid addition step after the cells have previously been treated with compounds and subsequently loaded with a voltage sensing dye.
To identify correctors of F508del, a single-addition HTS assay format was developed. This HTS assay utilizes fluorescent voltage sensing dyes to measure changes in membrane potential on the FLIPR III as a measurement for increase in gating (conductance) of F508del in F508del NIH 3T3 cells. The F508del NIH 3T3 cell cultures were incubated with the corrector compounds at a range of concentrations for 18-24 hours at 37° C., and subsequently loaded with a redistribution dye. The driving force for the response is a Cl^− ion gradient in conjunction with channel activation with forskolin in a single liquid addition step using a fluorescent plate reader such as FLIPR III.
Bath Solution #1: (in mM) NaCl 160, KCl 4.5, CaCl2) 2, MgCl2 1, HEPES 10, pH 7.4 with NaOH.
Chloride-free bath solution: Chloride salts in Bath Solution #1 (above) are substituted with gluconate salts.
NIH3T3 mouse fibroblasts stably expressing F508del are used for optical measurements of membrane potential. The cells are maintained at 37° C. in 5% CO2 and 90% humidity in Dulbecco's modified Eagle's medium supplemented with 2 mM glutamine, 10% fetal bovine serum, 1×NEAA, b-ME, 1×pen/strep, and 25 mM HEPES in 175 cm^2 culture flasks. For all optical assays, the cells were seeded at ˜20,000/well in 384-well Matrigel-coated plates. For the correction assays, the cells are cultured at 37° C. with and without compounds for 16-24 hours.

[2] = amide bond, HATU/DIEA, DMF, 25.0 °C, 0.083 h

| SMILES | EC50 [1] [nM] | 3T3 Max Activity [1] | ring closure, yield after HPLC ([2]; from Cc1cccc(C)c1-c1cc(CCCCCC(=O)O)nc(NS(=O)(=O)c2cccc(N)c2)n1, 15-membered ring, 33.5 mM, 2 steps) [%] | ring closure, yield after HPLC ([2]; from Cc1cccc(C)c1-c1cc(Cc2cccc(C(=O)O)c2)nc(NS(=O)(=O)c2cccc(N)c2)n1, 14-membered ring, 86.8 mM, 3 steps) [%] |
| --- | --- | --- | --- | --- |
| Cc1cccc(C)c1-c1cc2nc(n1)NS(=O)(=O)c1cccc(c1)NC(=O)CCCCC2 [Compound 1, 6-(2,6-dimethylphenyl)-2,2-dioxo-2 λ6-thia-3,5,15,21-tetrazatricyclo[14.3.1.14,8]henicosa-1(20),4(21),5,7,16,18-hexaen-14-one] | < 1000 | +++ (+++ is >60%) | 40 |  |
| Cc1cccc(C)c1-c1cc2nc(n1)NS(=O)(=O)c1cccc(c1)NC(=O)c1cccc(c1)C2 [Compound 2, 5-(2,6-Dimethylphenyl)-9 λ6-thia-6,8,15,23-tetraazatetracyclo [15.3.1.13,7.110,14]tricosa-1(21),3(23),4,6,10,12,14(22),17,19-nonaene-9,9,16-trione] | 1000 to 3000 | +++ (+++ is >60%) |  | 14 |
| Cc1cccc(C)c1-c1cc2nc(n1)NS(=O)(=O)c1cccc(c1)NC(=O)CCCC2 [Compound 12] | 1000 to 3000 | +++ (+++ is >60%) |  |  |
| Cc1cccc(C)c1-c1cc2nc(n1)NS(=O)(=O)c1cccc(c1)NC(=O)CCC2 [Compound 13] | 1000 to 3000 | +++ (+++ is >60%) |  |  |
